Entries after “also recorded” stand apart in the source; their conditions may differ.
Columns and labels:
HSV-1 F [1] = experiment: Virus neutralization end-point dilution assay on Vero cells, 100 TCID50; format: cell-based; settings: Table 4, read-out: concentration required for 50% neutralization
Experimental: (§1) Neutralizing activity of antibodies were determined by a standard end-point dilution assay using Vero cells grown as monolayers in microtiter plates. […] After 72 h incubation at 37° C. the antibody concentration required to prevent the formation of virus-induced CPE to 100% was determined as complete neutralization titer.
(§2) Neutralizing activity of antibodies was determined by end-point dilution assay as described previously (16). Briefly, serial dilutions of antibodies were incubated with 100 TCID50 of HSV-1 or HSV-2 for 1 h at 37° C. in cell culture medium. The antibody virus inoculum was applied to Vero cell monolayers grown in microtiter plates and cytopathic effect (CPE) was scored after 72 h incubation at 37° C. The antibody concentration required for reducing virus-induced CPE by 100% was determined as complete neutralization titer. […] For control purposes virus without antibody and antibody alone was used to induce maximal CPE or no CPE, respectively.

HSV-2 G = experiment: as above; format: cell-based; settings: 100% reduction of CPE, 72 h
Experimental: as §1, §2

HSV-1 = experiment: Plaque-reduction assay with or without human complement; format: cell-based; settings: 2 μg/ml, with or without 10% human complement
HSV-1 F [2] = experiment: Post-exposure treatment of NOD/SCID mice with established HSV-1 infection; format: in vivo
Experimental: Infected animals per group n=7.
Vaginal virus titers of antibody or control treated mice were determined from vaginal irrigations cultured on Vero cell monolayers. Error bars indicate standard deviation.
Anesthetized female nonobese diabetic/severe combined immunodeficient (NOD-SCID) mice (NOD.CB17-Prkdc^scid/J, Charles River Laboratories, Research Models and Services, Sulzfeld, Germany), 6-8 weeks of age, were challenged intravaginally with 20 μl inoculum of 1×10^6 TCID50 HSV-1 F per mouse. Skin glue (Epiglu, Meyer-Haake Medical Innovations, Wehrheim, Germany) was applied onto the vulva to prevent discharge of the virus inoculum. […] Mice were examined daily after viral inoculation for loss of weight, vulvitis/vaginitis (redness, mucopurulent discharge and signs of inflammation) and neurological disease. Mice displaying any of theses symptoms were sacrificed immediately. […] Mice were assessed for infection by determination of virus titers from vaginal irrigations obtained on days 1, 2, 4, 6 and 8 after infection and at the time of death using the endpoint dilution assay on Vero cells. Viral loads in organs (spleen, adrenal gland, lung heart, liver, kidney, spinal cord, and brain) of sacrificed mice were determined after homogenization of organs by titration on Vero cell monolayers as described elsewhere (41). Each test and control group contained 9-10 animals with detectable HSV-1 infection.

HSV1 strain 342 hv = experiment: Intravaginal HSV1 infection of C57BL/6J mice, i.p. antibody; format: in vivo; settings: i.p. post infection
Text: Therefore, C57BL/6J mice were infected by application of the HSV1 strain 342 hv on the intact vaginal mucosa membrane.

[3] = tested on: HSV-1 wild-type strains and gB mutant viruses; experiment: Mouse protection experiments with gB mutant viruses; format: in vivo, C57BL/6 mice; settings: i.p. 24 hours before
HSV-1 F [4] = experiment: Pre- versus post-attachment neutralization assay; format: cell-based; settings: 100 TCID50 HSV-1, 4° C., Vero cells
Experimental: The highest antibody and polyvalent human IgG titer, respectively, preventing virus induced cytopathic effect (CPE) in ten individual inoculated cell monolayers to 100% and 50% relative to controls were determined after 72 h incubation at 37° C. and being considered as the endpoint. Standard errors of the mean of three independent experiments were <0.1.
Neutralization titers were determined after 72 h as described in the standard neutralization assay above.

mAb 2c: murine monoclonal IgG2a antibody specific for glycoprotein B of HSV1 and HSV2; VH SEQ ID NO: 9, VL SEQ ID NO: 10
IC50 (HSV-1 F [1]): 4.3 nM | Concentration for complete neutralization of 100 TCID50 (HSV-2 G): 31 nM | complement dependence of HSV neutralization (HSV-1): neutralize HSV complement-independent | protection from lethal outcome of established infection (HSV-1 F [2]; 15 mg/kg i.v. at 24 h, 40 h and 56 h post infection): completely protected from the lethal outcome of infection; also recorded: completely prevented lethal outcome of infection | virions in sensory neurons and respective organs (HSV-1 F [2]; one month after infection): no virions were detected | inhibition of viral replication and prevention of lethal disease (HSV1 strain 342 hv; CD4+ and CD8+ depleted animals): capable to inhibit viral replication as well as to prevent a generalized, lethal progressing disease with a high efficiency | inhibition of viral propagation in vaginal mucosa and inflammatory lesions (HSV1 strain 342 hv; immunocompetent and CD4+ T cell depleted animals): capable of inhibiting the viral propagation in the vaginal mucosa membrane and the formation of inflammatory lesions | protective effect in vivo ([3]; mice inoculated with mutants R126 (Y303N), R1375 (R304Q), B4.1 (E305K)): ineffective | protective effect in vivo ([3]; mice inoculated with mutants R1435 (H308Y) or R233 (R328H) or wild-type viruses): effective | pre-attachment versus post-attachment neutralization (HSV-1 F [4]): Equal neutralization efficacy
